Drawing on PubChem BioAssay (NCI), this text covers GI50 and TGI for six molecules.

Some test systems named below: NCI-H23 lung; 786-0 renal; HS 578T breast; LOX IMVI melanoma; SF-539 CNS; MCF7 breast; NCI-H522 lung; SW-620 colon; TK-10 renal; NCI-H226 lung.
What all share (test): NCI tumour cell line growth inhibition, 48 h

Structures are written as SMILES.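 Method: 48-hour compound exposure of cells in 96-well plates, five concentrations, linear interpolation of endpoints. The concentration for 50% growth inhibition is given as GI50. TGI marks complete inhibition of growth.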

As for `Nc1cc(N)c2nc(NCCc3ccc(Cl)c(Cl)c3)cnc2c1`, the GI50 was 19.9 µM with NCI-H23 lung; 16.5 µM in the assay with 786-0 renal; 23.5 µM in the assay with HS 578T breast; 12 µM with LOX IMVI melanoma; 15.4 µM in the assay on SF-539 CNS; 3.08 µM in the assay on MCF7 breast. Also, the GI50 was 12.6 µM with NCI-H522 lung, 16.2 µM in the assay with SW-620 colon, 18.5 µM in the assay on TK-10 renal and 21.4 µM in the assay with NCI-H226 lung. Further, the TGI in the assay on NCI-H23 lung came out at 45.7 µM; in the assay on 786-0 renal, 32.9 µM; with HS 578T breast it was 56.9 µM; in the assay with LOX IMVI melanoma it was 31.1 µM; with SF-539 CNS, 29.8 µM; in the assay with MCF7 breast, 13.3 µM. Also, the TGI with NCI-H522 lung worked out at 33.7 µM; in the assay with SW-620 colon, 32 µM; in the assay with TK-10 renal, 33.3 µM; with NCI-H226 lung it was 47.6 µM.
Consider `C=CC(=O)N1CCC[C@@H](n2nc(-c3ccc(Oc4ccccc4)cc3)c3c(N)ncnc32)C1`, for which the GI50 was greater than 10 µM in the assay on NCI-H23 lung; greater than 4.5 µM with 786-0 renal; greater than 10 µM in the assay with HS 578T breast; greater than 5.39 µM in the assay on LOX IMVI melanoma; greater than 6.36 µM in the assay with SF-539 CNS; greater than 8.82 µM in the assay on MCF7 breast. Besides, the GI50 in the assay on NCI-H522 lung is 0.0859 µM; in the assay on SW-620 colon, greater than 10 µM; with TK-10 renal, 0.0409 µM; in the assay with NCI-H226 lung, greater than 6.06 µM. The TGI with NCI-H23 lung, in the assay with 786-0 renal, in the assay on HS 578T breast, in the assay with LOX IMVI melanoma, with SF-539 CNS and in the assay on MCF7 breast was greater than 10 µM each time. In addition, the TGI is greater than 10 µM in the assay on NCI-H522 lung, greater than 10 µM with SW-620 colon, 3.14 µM in the assay on TK-10 renal and greater than 10 µM in the assay on NCI-H226 lung.
For `O=C(N/N=C/c1ccncc1)c1ccc(F)cc1`, the GI50 in the assay with NCI-H23 lung, with 786-0 renal, in the assay with HS 578T breast, in the assay on LOX IMVI melanoma, in the assay with SF-539 CNS and with MCF7 breast was greater than 40 µM throughout. Also, the GI50 in the assay with NCI-H522 lung, with SW-620 colon, in the assay with TK-10 renal and in the assay with NCI-H226 lung was greater than 40 µM in each case. In addition, the TGI in the assay with NCI-H23 lung, in the assay with 786-0 renal, in the assay with HS 578T breast, in the assay on LOX IMVI melanoma, in the assay on SF-539 CNS and in the assay on MCF7 breast was greater than 40 µM in each case. The TGI in the assay on NCI-H522 lung, with SW-620 colon, with TK-10 renal and in the assay with NCI-H226 lung was greater than 40 µM throughout.
For `COc1cc(C2CC(c3cccc(Nc4ccnc5cc(Cl)ccc45)c3)=NN2c2ccccc2)cc(OC)c1OC` (stereo not given), the GI50 in the assay on NCI-H23 lung was 64.4 µM; in the assay with 786-0 renal, 5.88 µM; with HS 578T breast it was 9.22 µM; in the assay on LOX IMVI melanoma, 2.3 µM; in the assay on SF-539 CNS, 3.08 µM; in the assay on MCF7 breast it was 2.74 µM. Also, the GI50 in the assay on NCI-H522 lung was 3.6 µM; in the assay on SW-620 colon, 2.44 µM; with TK-10 renal it was 9.57 µM; with NCI-H226 lung it was 41.2 µM. Further, the TGI is greater than 100 µM in the assay with NCI-H23 lung; greater than 100 µM in the assay on 786-0 renal; greater than 100 µM in the assay on HS 578T breast; greater than 100 µM with LOX IMVI melanoma; 18.1 µM in the assay with SF-539 CNS; greater than 100 µM in the assay on MCF7 breast. The TGI in the assay with NCI-H522 lung, with SW-620 colon, with TK-10 renal and with NCI-H226 lung was greater than 100 µM in each case.
For `Fc1ccc(Nc2nc3nonc3nc2Nc2ccc(I)cc2)cc1`, the GI50 in the assay with NCI-H23 lung was 0.265 µM; in the assay on 786-0 renal it was 0.298 µM; in the assay on HS 578T breast, 0.617 µM; in the assay with LOX IMVI melanoma, 0.349 µM; with SF-539 CNS, 0.275 µM; in the assay with MCF7 breast it was 0.277 µM. Moreover, the GI50 with NCI-H522 lung is 0.192 µM; in the assay on SW-620 colon it was 0.387 µM; in the assay on TK-10 renal, 0.315 µM; with NCI-H226 lung it was 0.319 µM. Also, the TGI with NCI-H23 lung is 1.31 µM; in the assay on 786-0 renal it was 2.59 µM; in the assay with HS 578T breast it was 13.6 µM; in the assay on LOX IMVI melanoma, 1.44 µM; with SF-539 CNS, 2.58 µM; in the assay on MCF7 breast, 4.08 µM. Also, the TGI in the assay with NCI-H522 lung turned out to be 0.693 µM; with SW-620 colon, 15.6 µM; in the assay with TK-10 renal, 2.18 µM; with NCI-H226 lung, 1.94 µM.
As for `COc1ncc(-c2ccc3nccc(C#CCCCCC(=O)NO)c3c2)cc1NS(=O)(=O)c1ccc(F)cc1F`, the GI50 in the assay with NCI-H23 lung is 0.984 µM; in the assay on 786-0 renal, 0.0819 µM; in the assay with HS 578T breast it was 0.0307 µM; in the assay on LOX IMVI melanoma, 0.0968 µM; with SF-539 CNS, 0.0689 µM; with MCF7 breast, 0.0186 µM. Further, the GI50 with NCI-H522 lung is 0.0929 µM; in the assay on SW-620 colon, 0.158 µM; in the assay on TK-10 renal it was 0.0294 µM; in the assay with NCI-H226 lung, 1.59 µM. In addition, the TGI in the assay on NCI-H23 lung stood at 13 µM; in the assay with 786-0 renal it was 3.68 µM; with HS 578T breast it was 1.17 µM; in the assay on LOX IMVI melanoma it was 1.9 µM; in the assay on SF-539 CNS, 1.34 µM; in the assay on MCF7 breast it was 4.45 µM. Further, the TGI was 2.31 µM in the assay on NCI-H522 lung, 3.9 µM with SW-620 colon, 1.37 µM in the assay on TK-10 renal and 15.5 µM with NCI-H226 lung.
